Measured values from paper PMC8657848, “Developmental Toxicity and Biotransformation of Two Anti-Epileptics in Zebrafish Embryos and Early Larvae” (International Journal of Molecular Sciences, 2021).

Columns and labels:
[1] = Microsomal incubation with CBZ and PHE, adult zebrafish liver microsomes; type: in vitro ADME, Danio rerio; conditions: data not shown
[2] = Microsomal incubation with CBZ and PHE, human liver microsomes; type: in vitro ADME; conditions: human adult liver microsomes; data not shown
Method: (§1) Moreover, positive and negative controls were included: pooled human liver microsomes (Gibco™, HMMCPL–PL050B, Thermo Fisher Scientific) and Insect Cell Control Supersomes™ (lot number: PL050 C-B, 456201, Corning Incorporated, Corning, NY, USA), respectively. Based on Oziolor et al., microsomal reactions were initiated after adding the substrate solution at a concentration of 100 µM (see Supplementary Table S1) in a mixture of 100 mM K3PO4 buffer (Corning® Gentest™, NY, USA) of pH 7.4, 5% and 1% of NADPH regenerating system reagents A and B, respectively (Corning, Woburn, MA, USA) and 200 µg/mL of microsomal protein, for a total volume of 500 µL. The reactions were performed at 28.5 ± 0.3 °C until the time point of interest. […]
(§2) For the quantification of the metabolites E-CBZ and HPPH, the samples processed were the microsomal incubation reactions (see Section 4.3.2), the zebrafish culture and stock medium (4.2.1) and the zebrafish embryos/larvae extracts (see Section 4.2.3). […] To quantify the concentrations of E-CBZ and HPPH in these samples, standard curves (in duplicate) of 10 concentrations for E-CBZ (0.5–400 ng/mL; see Supplementary Table S1) and HPPH (2–1600 ng/mL; see Supplementary Table S1) were prepared, as were quality controls. […]

zebrafish embryos/larvae = assay: Quantification of parent compounds and metabolites in whole zebrafish embryos/larvae homogenate extracts; conditions: for Uptake by embryos and larvae (quantified in homogenate extracts): CBZ, PHE 31.25, 85, 250 µM, E-CBZ, HPPH 250 µM
Method: In three biological replicates (n = 3; 20 embryos/replicate) and at the two desired developmental stages (24 and 120 hpf), embryos/larvae of each test and control group were pooled and then rinsed three times with cold EMS (4 °C) on a mesh (Cell strainer […] Nylon, Steril Falcon®, Durham, NC, USA). Embryos collected at 24 hpf were not dechorionated, as the focus of this study was on the potential formation of the mammalian active metabolites. Moreover, it was argued that the chorion was more permeable than previously believed and that dechorionation could increase background malformations during gross morphology investigation. Embryos/larvae were then transferred and kept for five min in cryotubes (Cryo.S™, Greiner Bio-One, Frickenhausen, Germany) filled with 500 µL of cold embryo medium (4 °C), before being snap-frozen in liquid nitrogen and kept, for later use, at −80 °C (Figure 9).
The extraction preparation was based on Brox et al. for two developmental stages, 24 and 120 hpf, and performed in triplicate for each test group (n = 3, 20 embryos/replicate) (Figure 9). On the day of the extraction procedure, frozen samples (see Section 4.2.1) were thawed on ice and EMS was removed. A volume of 500 µL of acetonitrile (ACN) (purity ≥99.9%, Merck, Darmstadt, Germany) containing the internal standard lamotrigine, LAMO, (≥98% purity, CAS number: 84057-84-1, Sigma-Aldrich, Merck, Darmstadt, Germany) was then added to each tube to reach a final concentration of 0.39 µM, after dilution in HPLC-grade water. Samples were vortexed (VM3, CAT, Germany) for 5 min at a 2000 rotation/min speed, before being placed on ice and ultrasonicated with an Ultrasonic Processor VCX 130 (Sonics, Newtown, CT, USA) fifteen times for 30 s at an 80% amplitude with pause intervals of 30 s. Supernatants of the samples were then centrifuged (Centrifuge 5424 R, Eppendorf, Hamburg, Germany) twice at 4 °C for 15 min at 15,000× g, snap-frozen and kept for later use at −80 °C, whereas the pellets were discarded.
First, both sample types were processed to reach a final percentage of 30% ACN and a concentration of 0.39 µM of the IS, LAMO. […] Calibration curves and quality controls were prepared in their corresponding reaction mixtures to minimize matrix or extraction process effects. The analytical investigations were performed on an Acquity Ultra Performance Liquid Chromatography (UPLC) with sample manager, binary solvent manager, diode array detector and a triple-quadrupole detector (ACQUITY UPLC-triple quadrupole detector, Waters, Milford, CT, USA) equipped with the Masslynx software (version 4.1). […] Separation was accomplished in 6 min, using a flow rate of 0.5 mL/min. The solvent gradient program was set as follows: 85% A/15% B (0–0.5 min); 85–0% A/15–100% B (0.5–3.3 min); 0% A/100% B (3.3–4.4 min); 0–85% A/100–15% B (4.4–4.5 min); 85% A/15% B (4.5–6 min). The column was set at 40 °C and the injection volume was 10 μL. For the mass spectrometric conditions, the following parameters were used in positive ionization mode: capillarity voltage 3.5 kV, extractor voltage 3 V, cone voltage 35 V, Rf lens 0.1 V. The source temperature was set at 120 °C and the desolation temperature at 450 °C. The desolvation gas flow was fixed at 1000 L/h and cone gas flow at 50 L/h. […] The limit of quantification, linearity, matrix effects and specificity of the method developed for each compound were validated based on the European Medicines Agency (EMA) guidelines for bioanalytical method validation and the study from Kislyuk et al..
For the quantification of the metabolites E-CBZ and HPPH, the samples processed were the microsomal incubation reactions (see Section 4.3.2), the zebrafish culture and stock medium (4.2.1) and the zebrafish embryos/larvae extracts (see Section 4.2.3). Samples from the different experiments were also prepared, as for the parent compounds, to reach a final percentage of 30% ACN and a concentration of 0.39 µM of the IS, LAMO.

[3] = Microsomal incubation with CBZ and PHE, rat liver microsomes; type: in vitro ADME; conditions: rat adult liver microsomes; data not shown
Method: as §1, §2

[4] = Microsomal incubation with CBZ and PHE, rabbit liver microsomes; type: in vitro ADME; conditions: rabbit adult liver microsomes; data not shown
Method: as §1, §2

Row | Structure (SMILES) | Decrease of parent compound after 240 min (pilot investigation) [1] | Decrease of parent compound after 240 min (pilot investigation) [2] | E-CBZ in embryo/larva extracts after exposure to CBZ (zebrafish embryos/larvae; 31.25 µM CBZ, 24 and 120 hpf) | Internal concentration, fold lower at 120 hpf than at 24 hpf (zebrafish embryos/larvae; 85 µM) | Uptake by embryos and larvae (quantified in homogenate extracts) (zebrafish embryos/larvae; 24 and 120 hpf) | Decrease of parent compound after 240 min (pilot investigation) [3] | Decrease of parent compound after 240 min (pilot investigation) [4] | HPPH in embryo/larva extracts after exposure to PHE (zebrafish embryos/larvae; 24 hpf and 120 hpf, any samples) | Internal concentration, times higher at 24 hpf than at 120 hpf (zebrafish embryos/larvae; all concentrations)
1 | NC(=O)N1c2ccccc2C=Cc2ccccc21 [CBZ, carbamazepine] | no changes | no changes | could not be detected | 3.4 fold | taken up | no changes | slight decrease | – | –
2 | O=C1NC(=O)C(c2ccccc2)(c2ccccc2)N1 [PHE, phenytoin] | No decrease | No decrease | – | – | taken up | very slight decrease | very slight decrease | could not detect | ~5 times
